The values that follow are results of earlier work, collected in patent publication US6774131B1, “Remedies for endothelin-induced diseases” (Yamanouchi Pharmaceutical Co., Ltd., priority 2000, dated 2004).

Structures are written as SMILES.

The test system of series [1] is prostate cancer patients. Particulars: reported, Proceeding of ASCO,19,1314,2000; cited from earlier work.
The conditions of series [2]: 20 mg; 6th International Conference on Endothelin, Abstract No. 219; cited from earlier work.

As to `CCCCN(CCCC)C(=O)CN1C[C@H](c2ccc3c(c2)OCO3)[C@@H](C(=O)O)[C@@H]1c1ccc(OC)cc1` [ABT-627, 1-(N,N-dibutylcarbamoylmethyl)-2(R)-(4-methoxyphenyl)-4(S)-(3,4-methylenedioxyphenyl)pyrrolidine-3(R)-carboxylic acid], the minimum effective dose in series [1] is reported as 10 mg. In series [2], the AUC (commonly concentration integrated over time) is 802 ng·h/mL; the Cmax (in general, the peak of the concentration-time curve) is 93.5 ng/mL; the T max was 36 min; the “T ½” value is listed as 28.4 h.
